Laboratory results: patent publication US20070072815A1, “Methods and kits to increase the efficiency of oligonucleotide-directed nucleic acid sequence alteration” (priority 2004, published 2007)
“And” between values parts separate entries of the source, which are not always exact repeats. Equal values may be shown once. “Also recorded” adds a separate entry of the source.

Legend:
Type in all cases: cell-based
[1] = tested on: mutant eGFP gene in DLD-1-1 cells; assay: eGFP gene correction (oligonucleotide-directed sequence alteration) in DLD-1-1 cells, FACS readout
DLD-1-1 cells = assay: Cell cycle analysis (DNA content by FACS), cells in S phase; conditions: 24 hours, 1 mM HU or 3 μM VP16, FACS analysis
Experimental: For cell cycle analysis, 1×10^6 cells are plated 24 hrs before the treatment with drugs and after 24 hrs of treatment, cells are trypsinized, resuspended in 300 μl cold PBS and fixed by adding 700 μl cold ethanol. Cells are then resuspended in 1 ml of PBS containing 500 µg/ml RNaseA and […] propidium iodide and analyzed for DNA content.
The effect of cell cycle on the efficiency of ODSA is assessed by synchronizing a population of DLD-1-1 cells with mimosine, which arrests cells in early S phase, and serum starvation. Cells are seeded at a density of 0.8×10^6 per 100 mm dish, attached for 20 hours and then cultured in RMPI-1640 medium containing 0.2% fetal bovine serum (FBS). These cells are grown for 48 hours followed by treatment with 0.1 mM mimosine (Sigma, St. Louis, Mo., USA) for 20 hours. Cell are washed twice with PBS and released at various times into fresh medium complemented with 10% FBS before electroporation. Cells are rinsed once with PBS, trypsinized and harvested by centrifugation and resuspended in PBS containing 10 μg/ml propidium iodide, 0.03% Triton-100 and 1 mg/ml RNase. Cells are incubated at room temperature for 1 hour before the measurement of DNA content by FACSCalibur™ flow cytometer. The percentage of cells at various stages of the cell cycle is determined by ModFit L™ software (Verity Software House, Inc., Topsham, Me., USA).
The resulting cells are then either analyzed by FACS, or the percentage of cells in S phase is determined by BrdU incorporation. FIG. 8 presents the results of both sets of experiments.

DNA of DLD-1-1 cells = assay: Pulsed-field gel electrophoresis of DNA damage (double strand breaks); conditions: HU 0.3, 1 or 5 mM; VP16 0.5, 1 or 3 μM; 24 hours
Experimental: The cells are released by trypsinization and melted in the agarose inserts. The agarose inserts are incubated in 0.5M EDTA—1% N-laurosylsarcosine—proteinase K (1 mg/ml) at 50° C. for 48 hrs and then washed four times in TE buffer prior to loading on a 1% agarose gel (Pulse-Field Certified Agarose, Bio-Rad, Hercules, Calif.) and DNA separation by pulsed-field gel electrophoresis is carried out for 24 hrs (Bio-Rad, 120° field angle, 60 to 240s switch time, 4 V/cm). The gel is subsequently stained with ethidium bromide and analyzed with AlphaImager™ 2200. (Alpha Innotech Corp., San Leandro, Calif.).
The effects of MMS and bleomycin on oligonucleotide-directed gene alteration are determined as follows. DLD-1-1 cells are seeded in 100 mm dishes at 2×10^6 cells per plate and immediately treated with 0.2 μM MMS or 0.75 μM bleomycin. The cells are then grown for 24 hours, until approximately 50% confluent, and washed twice with PBS. A portion of each population of cells is removed for DNA analysis by pulsed-field electrophoresis, as described in Example 1. The correcting oligo EGFP/72NT (10 μg) is then added and the cells are electroporated as in Example 3. Cells are then analyzed to determine the percentage of cells with corrected eGFP genes as described in Example 3.

In the case of NC(=O)NO [HU, hydroxyurea], the “correction efficiency (frequency of gene repair)” value ([1]; 1 mM HU 24 hours before electroporation, asynchronous cells) is reported as 2.2% and ~3%, the “correction efficiency in synchronized cells relative to asynchronous cells” value ([1]; 1 mM HU or 10 mM thymidine, DTB synchronized vs asynchronous) is reported as “more than three times” and the “effect of dose on correction efficiency” value ([1]; HU 0.3-5 mM or VP16 0.5-10 μM for 24 hours prior to electroporation) is reported as “increase correction efficiency in a dose-dependent manner”. For the same compound, the “cells in S-phase” value (DLD-1-1 cells) was 77% and the “DNA double strand breaks” value (DNA of DLD-1-1 cells) was “induce DSBs; also recorded: progressive increase in the amount of damaged DNA”.
